Test results as given in PMC6112376, “Comprehensive Analyses and Prioritization of Tox21 10K Chemicals Affecting Mitochondrial Function by in-Depth Mechanistic Studies” (Environmental Health Perspectives, 2018).
Counter-ions that a name gives are not always drawn. Like-named read-outs stand apart in the source and are kept apart here.

How the values were obtained:
HepG2 cells [1] = settings: cited from earlier work
HepG2 cells [2] = test: cells; settings: Homo sapiens; for IC50: HepG2, read-out: MMP assays IC50 (µM) HepG2; for Emax: HepG2, read-out: MMP assays efficacy (%) HepG2
rat primary hepatocytes = test: MMP assay in rat primary hepatocytes; settings: for IC50: Rattus norvegicus, Hepatocyte, read-out: MMP assays IC50 (µM) Rat Hepatocytes; for MMP assays efficacy (%) Rat Hepatocytes / MMP assays IC50 (µM) Rat Hepatocytes: mean ± SD of three experiments
[3] = read-out: MMP assays IC50 (µM) qHTS-HepG2
[4] = read-out: MMP assays IC50 (µM), qHTS-HepG2

SMILES	MMP assays efficacy (%) qHTS-HepG2 (HepG2 cells [1]) [%]	IC50 (HepG2 cells [1]; [3]) [µM]	IC50 (HepG2 cells [2]) [µM]	Emax (HepG2 cells [2]) [%]	IC50 (rat primary hepatocytes) [µM]	MMP assays efficacy (%) Rat Hepatocytes (rat primary hepatocytes)	IC50 (HepG2 cells [1]; [4]) [µM]	MMP assays IC50 (µM) Rat Hepatocytes (rat primary hepatocytes)
Nc1ccc([N+](=O)[O-])cc1O [Compound 2-Amino-5-nitrophenol]	-70±18	27.4 ± 14.1	35.5	76	52.1 ± 17.7	-63±37%		
CCN(CC)c1ccc(N)cc1 [N,N-Diethylbenzene-1,4-diamine]	-103±16		7.94	118	31.6	-105±29%	49.9 ± 3.51	
Clc1ccc(Sc2cc(Cl)c(Cl)cc2Cl)cc1 [Tetrasul]	-77±0		2.51	72		inactive	1.77 ± 0.25	inactive
Cc1cc(O)c(Cl)c(C)c1Cl [2,4-Dichloro-3,5-dimethylphenol]	-104±10	5.88 ± 4.85	8.91	95		inactive		inactive
CCCCCCCCCCCCOC(=O)c1cc(O)c(O)c(O)c1 [Dodecyl gallate]	-99±8	4.75 ± 1.81	7.94	100	48.7 ± 8.3	-65±17%		
Cc1c(C(=O)NN2CCCCC2)nn(-c2ccc(Cl)cc2Cl)c1-c1ccc(Cl)cc1 [Rimonabant]	-127±12		17.3	73	17.4 ± 2.83	-53±1%	25.6 ± 1.67	
C=C1/C(=C\C=C2/CCC[C@]3(C)[C@@H]([C@H](C)/C=C/[C@@H](O)C4CC4)CC[C@@H]23)C[C@@H](O)C[C@@H]1O [Calcipotriene]	-63±12	26 ± 3.89	21.8	124	17.3	-63±23%		
CCc1ccc(O)c(C(C)(C)C)c1 [Compound 2-tert-Butyl-4-ethylphenol]	-103±6	11.3 ± 2.6	15.8	95		inactive		inactive
CC(C)(C)CC(C)(C)c1ccc(O)c(Cc2ccc(Cl)cc2Cl)c1 [Clofoctol]	-112±5	1.64 ± 0.13	4.35	92	15.7 ± 6.04	-65±37%		
CCC(=O)Oc1ccc(/C(CC)=C(\CC)c2ccc(OC(=O)CC)cc2)cc1 [Diethylstilbestrol dipropionate]	-112±3	10.5 ± 2.66	7.08	101	49.3 ± 19.5	-38±22%		
CC(C)(C)c1cc(/C=C2\SC(N)=NC2=O)cc(C(C)(C)C)c1O [Darbufelone mesylate]	-110±13	11.7 ± 2.02	5.62	102	7.15 ± 5.41	-105±22%		
CCC(=O)OCC(=O)[C@@]1(OC(=O)CC)[C@@H](C)C[C@H]2[C@@H]3CCC4=CC(=O)C=C[C@]4(C)[C@@]3(F)[C@@H](O)C[C@@]21C [Betamethasone dipropionate]	-118±9	25.6 ± 1.67	19.4	63		inactive		inactive
Oc1ccc(-c2ccccc2)cc1Cl [Compound 2-Chloro-4-phenylphenol]	-138±26	15.4 ± 7.86	15.8	99	31.8 ± 3.65	-109±36%		
Cc1cc(O)cc(C)c1Cl [4-Chloro-3,5-dimethylphenol]	-122±6	21	25.1	106		inactive		inactive
O=[N+]([O-])c1ccc(O)c2ncccc12 [Nitroxoline]	-80±8		19.9	94	72.3 ± 39.1	-69±54%	9.22 ± 2.41	
N#CC(C#N)=Cc1ccc(O)c(O)c1 [Tyrphostin 23]	-107±6		17.3	103		inactive	17.7 ± 6.46	inactive
COc1cc(C(=O)NS(=O)(=O)c2ccccc2C)ccc1Cc1cn(C)c2ccc(NC(=O)OC3CCCC3)cc12 [Zafirlukast]	-108±3		13.8	105	3.43 ± 1.47	-114±33%	10.6 ± 1.22	
Cc1cc(O)c(C(C)(C)C)cc1Sc1cc(C(C)(C)C)c(O)cc1C [4,4'-Thiobis(6-tert-butyl-m-cresol)]	-104±19	1.86 ± 1.18	3.16	115	24.8 ± 11.8	-78±17%		
Oc1cc(O)c(Cl)cc1Cl [4,6-Dichloro-1,3-benzenediol]	-100±10	9.55 ± 2.74	15.8	108	35.7 ± 5.79	-37±3%		
COc1ccc(-c2coc3cc(O)ccc3c2=O)cc1 [Formononetin]	-85±16		17.8	80	13.2 ± 16.2	-74±27%	13.2 ± 4.88	
C#C[C@]1(O)CC[C@H]2[C@@H]3CCC4=CC(=NO)CC[C@@H]4[C@H]3CC[C@@]21CC (mixture of isomers) [Norelgestromin]	-122±2		19.4	121	13.4 ± 12.3	-55±21%	13.5 ± 6.64	
CCC(C)(C)c1ccc(CC(C)CN2C[C@@H](C)O[C@@H](C)C2)cc1 (some centres unmarked) [Amorolfine]	-63±11	21.6 ± 3.47	17.3	82		inactive		inactive
O=C1c2ccccc2C(=O)c2c(O)ccc(O)c21 [1,4-Dihydroxyanthracene-9,10-dione]	-103±19	5.24 ± 3.43	8.91	41	4.81 ± 8.07	-25±3%		
Oc1ccc(Sc2ccc(O)cc2)cc1 [4,4'-Thiodiphenol]	-100±12	21.1 ± 2.7	25.1	115	24.7 ± 9.79	-49±9%		
Cc1cc(/C=C/c2ccc3cc(N(C)C)ccc3[n+]2C)c(C)n1-c1ccccc1 [Pyrvinium pamoate]	-108±33		0.17	91			2.02 ± 1.2	
Nc1ccc(N)c([N+](=O)[O-])c1 [2-Nitro-1,4-phenylenediamine]	-85±13	7.07 ± 6.53	12.6	87				
O=C1CN(/N=C/c2ccc([N+](=O)[O-])o2)C(=O)N1 [Nitrofurantoin]	-70±6			87			26.3 ± 6.35	
